Laboratory results taken from patent publication EP4647433A1, “SHP2 INHIBITOR AND USES THEREOF” (Kanaph Therapeutics Inc., priority 2023, dated 2024).
Like-named read-outs stand apart in the source and are kept apart here.

What was measured:
phospho-ERK = phospho-ERK assay (AlphaLisa) in H358 cells; assay type: cell-based; conditions: Homo sapiens, NCI-H358, 1.5 hours incubation, read-out: pERK assay (IC50)
Experimental: H358 [20,000 cell/well] was contained in 40 µL of the cell culture solution (RPMI, 10% FBS, penicillin, streptomycin) and placed on a 384-well plate. After 24 hours, the serially diluted compound according to the Examples (concentration of minimum 0.13 nM, maximum 10 µM) was contained in 10 µL of the cell culture solution, put into wells containing cells, and incubated in a cell incubator for 1.5 hours. As a positive control group, the selective SHP2 inhibitor, TNO155 (Chemietek, US; concentration ranging from 0.13 nM to 10 µM) was used.
Thereafter, phospho-ERK was labeled using an AlphaLisa system from PerkinElmer according to the manufacturer's instructions, and then fluorescence (680 nm excitation wavelength, 615 nm emission wavelength) values were measured using a Varioskan equipment from Thermo. IC50 values were obtained using Graphad's Prism from the measured values depending on the concentration.
Intracellular SHP2 activity can be confirmed by measuring the degree of phosphorylation of ERK (extracellular signal regulated kinase), which represents Ras/Raf/ERK, a downstream signal pathway of SHP2. Inhibition of ERK phosphorylation by SHP2 inhibitors was confirmed through phospho-ERK analysis, which confirmed that the SHP2 inhibitors of the present disclosure have excellent activity in inhibiting ERK phosphorylation mediated by SHP2.

SHP2 = target: T1, SHP2 (Homo sapiens, UniProt Q06124); assay: Phosphatase assay (PTPase assay, DiFMUP substrate); assay type: biochemical
T1 construct: SHP2 (full length, diluted to 100 pM final concentration in reaction buffer, BPS bioscience, US); purchased BPS bioscience, US
T1 sequence (Q06124 1-593): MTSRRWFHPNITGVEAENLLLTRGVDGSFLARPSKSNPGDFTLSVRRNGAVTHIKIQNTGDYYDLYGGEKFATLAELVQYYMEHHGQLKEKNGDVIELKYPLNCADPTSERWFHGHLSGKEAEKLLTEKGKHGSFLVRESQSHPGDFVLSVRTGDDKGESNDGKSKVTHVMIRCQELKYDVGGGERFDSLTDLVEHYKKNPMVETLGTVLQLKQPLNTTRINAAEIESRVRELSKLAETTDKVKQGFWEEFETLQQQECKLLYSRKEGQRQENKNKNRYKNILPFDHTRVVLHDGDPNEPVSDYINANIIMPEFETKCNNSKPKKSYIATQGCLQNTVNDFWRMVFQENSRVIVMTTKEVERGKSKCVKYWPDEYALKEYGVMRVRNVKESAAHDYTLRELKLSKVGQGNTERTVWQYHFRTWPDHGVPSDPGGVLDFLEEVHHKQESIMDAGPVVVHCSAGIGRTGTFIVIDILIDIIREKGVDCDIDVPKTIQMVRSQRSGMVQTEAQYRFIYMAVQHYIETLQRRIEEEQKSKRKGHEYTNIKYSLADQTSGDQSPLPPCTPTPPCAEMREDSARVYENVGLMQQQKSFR
Experimental: IC50 values were measured using 6,8-difluoro-4-methylumbelliferyl phosphate (DiFMUP) as a substrate. The reaction was performed in a 384-well plate, and fluorescence measurement values were obtained using an EnVision plate reader from PerkinElmer.
SHP2 (full length, diluted to 100 pM final concentration in reaction buffer, BPS bioscience, US) was incubated with the SHP2 activating peptide in reaction buffer (60 mM HEPES (pH 7.2), 75 mM NaCl, 75 mM KCl, 1 mM EDTA, 5 mM DTT, 0.05% P-20) for 30 minutes to activate SHP2. After activation, DMSO [1% (V/V) or the compound according to the Examples (concentration ranging from 0.6 nM to 10 µM)] was added. As a positive control group, the selective SHP2 inhibitors SHP099 (6-(4-amino-4-methylpiperidin-1-yl)-3-(2,3-dichlorophenyl)pyrazin-2-amine, FOCUS bioscience, Austrailia; concentration ranging from 0.6 nM to 10 µM) and TNO155 ((3S,4S)-8-(6-amino-5-((2-amino-3-chloropyridin-4-yl)thio)pyrazin-2-yl)-3-methyl-2-oxa-8-azaspiro[4.5]decan-4-amine, Chemietek, US; concentration ranging from 0.6 nM to 10 µM) were used. [drawing 184]
DiFMUP (80 µM) was added to the reaction and incubated for a total of 2 hours to allow for the reaction to proceed. Thereafter, fluorescence (340 nm excitation, 450 nm emission) values were measured. IC50 values were obtained using Graphad's Prism from the measured values depending on the concentration.
In the phosphatase assay (PTPase assay), when an IC50 value was 100 nM or more, + was indicated, when an IC50 value was 3 nM or more and less than 100 nM, ++ was indicated, and when an IC50 value was less than 3 nM, +++ was indicated.

H358 cells = assay: Cell viability (3D spheroid, 3D CellTiter-Glo); assay type: cell-based; conditions: Homo sapiens, NCI-H358, 120 h; H358 spheroids, 5 days treatment
Experimental: Human non-small cell lung cancer cell line H358 cells were purchased from the Korean Cell Line Bank. Cancer cell lines were cultured in the recommended RPMI-1640 medium supplemented with 10% fetal bovine serum (FBS) and 1% penicillin/streptomycin. Monolayer-cultured cancer cell lines were detached by treatment with Trypsin/EDTA, and 100 µL of cell suspension containing 4 x 10^3 cells was each dispensed into SPL3D™ Cell Floater, 96-well round plate, through cell line counting. After culturing for 72 hours to form spheroid, the cells were individually treated with the compounds according to the Examples, which had been serially diluted (minimum 1.5 nM, maximum 10 µM in concentration), and then cultured in a cell incubator for 5 days. To analyze cell viability, the cells were treated with 50 uL of 3D CellTiter-Glo, stirred for 5 minutes at 500 rpm in a plate shaker from Thermo Fisher Scientific, and incubated for 25 minutes at room temperature. Then, the luminescent values were measured using a Varioskan equipment from Thermo Fisher Scientific. IC50 values were obtained using GraphPad's Prism from the measured values depending on the concentration.
In the cell viability assay, when an IC50 value was 50 nM or more, + was indicated, when an IC50 value was 10 nM or more and less than 50 nM, ++ was indicated, and when an IC50 value was less than 10 nM, +++ was indicated.

[1] = Brain-plasma Pharmacokinetics; conditions: male, CD-1 (ICR), mouse, brain/plasma, 20 mg/kg
Experimental: Nine male CD-1 mice (ICR mouse) aged 6 to 9 weeks were treated with the compounds according to the Examples at a concentration of 20 mg/kg. 0.025 mL of blood and brain tissue were collected at 1 hour, 8 hours, and 24 hours post-treatment, respectively. The collected blood was placed in an EDTA-K2 tube, centrifuged at 4°C at 3,200 x g for 10 minutes, and the supernatant plasma was collected. The brain tissue samples were collected immediately after euthanizing the CD-1 mice after blood collection and performing cardiac perfusion with cold saline. After collection, the brain tissues were washed with cold saline, wiped and dried, weighed, and homogenized using a homogenization buffer (15 mM PBS (pH 7.4): MeOH = 2:1) at a ratio of 1:3 (1 g of tissue to 3 mL of buffer, dilution ratio 4). Plasma and homogenized brain tissue samples were each transferred to a polypropylene microcentrifuge tube and stored at -60°C or lower. The concentration of compounds distributed in plasma and brain tissue was analyzed using LC-MS/MS, and the distribution in brain tissue compared to plasma was calculated as follows. Brain-to-plasma ratio = AUC(0-t) brain tissue /AUC(0-t) plasma [formula]
In the Brain-plasma Pharmacokinetics assay, when a brain-to-plasma ratio value was 0.05 or more and less than 0.1, + was indicated, when a brain-to-plasma ratio value was 0.1 or more and less than 0.25, ++ was indicated, and when a brain-to-plasma ratio value was more than 0.25, +++ was indicated.

[2] = full length SHP2 100 pM activated with SHP2 activating peptide, DiFMUP 80 µM, 2 hours; read-out: PTPase assay (IC50)

| IC50 (phospho-ERK) | IC50 (SHP2; [2]) | IC50 (H358 cells) | Kp at 24 h [1] | Compound | IC50 (SHP2; read-out: PTPase assay (IC50); full length SHP2 100 pM activated with SHP2 activating peptide, DiFMUP 80 µM, 2 hours) |
| --- | --- | --- | --- | --- | --- |
| 45 to 1500 nM |  | < 10 nM | 0.1 to 0.25 | N[C@@H]1c2ccccc2CC12CCN(c1cnc(Sc3ccc4ncn(-c5cccnc5)c(=O)c4c3Cl)cn1)CC2 [Example 31, (S)-6-((5-(1-amino-1,3-dihydrospiro[indene-2,4'-piperidin]-1'-yl)pyrazin-2-yl)thio)-5-chloro-3-(pyridin-3-yl)quinazolin-4(3H)-one] |  |
|  | < 3 nM | < 10 nM | 0.1 to 0.25 | COC(C)(C)Cn1cnc2ccc(Sc3cnc(N4CCC5(CC4)Cc4ccccc4[C@H]5N)nn3)c(Cl)c2c1=O [Example 34, (S)-6-((3-(1-amino-1,3-dihydrospiro[indene-2,4'-piperidin]-1'-yl)-1,2,4-triazin-6-yl)thio)-5-chloro-3-(2-methoxy-2-methylpropyl)quinazolin-4(3H)-one] |  |
| 45 to 1500 nM | < 3 nM | 10 to 50 nM |  | COC(C)Cn1c(C)nc2ccc(Sc3cnc(N4CCC5(CC4)CO[C@@H](C)[C@H]5N)cn3)c(Cl)c2c1=O (stereo partly drawn) [Example 39, 6-((5-((3S,4S)-4-amino-3-methyl-2-oxa-8-azaspiro[4.5]decan-8-yl)pyrazin-2-yl)thio)-5-chloro-3-(2-methoxypropyl)-2-methylquinazolin-4(3H)-one] |  |
|  | < 3 nM | < 10 nM |  | COC(C)Cn1ccc2ccc(Sc3cnc(N4CCC5(CC4)Cc4ccccc4[C@H]5N)cn3)c(Cl)c2c1=O (stereo partly drawn) [Example 42, 7-((5-((S)-1-amino-1,3-dihydrospiro[indene-2,4'-piperidin]-1'-yl)pyrazin-2-yl)thio)-8-chloro-2-(2-methoxypropyl)isoquinolin-1(2H)-one] |  |
|  | < 3 nM | 10 to 50 nM |  | CC(C)n1ccc2ccc(Sc3cnc(N4CCC5(CC4)CO[C@@H](C)[C@H]5N)cn3)c(Cl)c2c1=O [Example 46, 7-((5-((3S,4S)-4-amino-3-methyl-2-oxa-8-azaspiro[4.5]decan-8-yl)pyrazin-2-yl)thio)-8-chloro-2-isopropylisoquinolin-1(2H)-one] |  |
|  |  |  | > 0.25 | Cn1cnc2ccc(Sc3cnc(N4CCC5(CC4)Oc4ccccc4[C@H]5N)cn3)c(Cl)c2c1=O [Example 51, (R)-6-((5-(3-amino-3H-spiro[benzofuran-2,4'-piperidin]-1'-yl)pyrazin-2-yl)thio)-5-chloro-3-methylquinazolin-4(3H)-one] |  |
|  |  |  | > 0.25 | N[C@@H]1c2ccccc2OC12CCN(c1cnc(Sc3ccc4ncn(-c5ccccc5)c(=O)c4c3Cl)cn1)CC2 [Example 52, (R)-6-((5-(3-amino-3H-spiro[benzofuran-2,4'-piperidin]-1'-yl)pyrazin-2-yl)thio)-5-chloro-3-phenylquinazolin-4(3H)-one] |  |

Further lines, the molecule ahead of its results:

| Compound | IC50 (phospho-ERK) | IC50 (SHP2; [2]) | IC50 (H358 cells) | Kp at 24 h [1] | IC50 (SHP2; read-out: PTPase assay (IC50); full length SHP2 100 pM activated with SHP2 activating peptide, DiFMUP 80 µM, 2 hours) |
| --- | --- | --- | --- | --- | --- |
| N[C@@H]1c2scnc2CC12CCN(c1cnc(Sc3ccc4nc[nH]c(=O)c4c3Cl)cn1)CC2 [Example 1, (S)-6-((5-(6-amino-4,6-dihydrospiro[cyclopenta[d]thiazole-5,4'-piperidin]-1'-yl)pyrazin-2-yl)thio)-5-chloroquinazolin-4(3H)-one] | < 45 nM | < 3 nM |  |  |  |
| Cn1cnc2ccc(Sc3cnc(N4CCC5(CC4)Cc4ncsc4[C@H]5N)cn3)c(Cl)c2c1=O [Example 2, (S)-6-((5-(6-amino-4,6-dihydrospiro[cyclopenta[d]thiazole-5,4'-piperidin]-1'-yl)pyrazin-2-yl)thio)-5-chloro-3-methylquinazolin-4(3H)-one] | < 45 nM |  | < 10 nM |  | < 3 nM |
| CCn1cnc2ccc(Sc3cnc(N4CCC5(CC4)Cc4ncsc4[C@H]5N)cn3)c(Cl)c2c1=O [Example 3, (S)-6-((5-(6-amino-4,6-dihydrospiro[cyclopenta[d]thiazole-5,4'-piperidin]-1'-yl)pyrazin-2-yl)thio)-5-chloro-3-ethylquinazolin-4(3H)-one] | < 45 nM | < 3 nM | < 10 nM |  |  |
| CC(C)n1cnc2ccc(Sc3cnc(N4CCC5(CC4)Cc4ncsc4[C@H]5N)cn3)c(Cl)c2c1=O [Example 4, (S)-6-((5-(6-amino-4,6-dihydrospiro[cyclopenta[d]thiazole-5,4'-piperidin]-1'-yl)pyrazin-2-yl)thio)-5-chloro-3-isopropylquinazolin-4(3H)-one] | < 45 nM | < 3 nM | < 10 nM |  |  |
| COCCn1cnc2ccc(Sc3ncc(N4CCC5(CC4)Cc4ccccc4[C@H]5N)nc3N)c(Cl)c2c1=O [Example 8, (S)-6-((3-amino-5-(1-amino-1,3-dihydrospiro[indene-2,4'-piperidin]-1'-yl)pyrazin-2-yl)thio)-5-chloro-3-(2-methoxyethyl)quinazolin-4(3H)-one] | < 45 nM | < 3 nM |  |  |  |
| COC(C)Cn1cnc2ccc(Sc3ncc(N4CCC5(CC4)Cc4ccccc4[C@H]5N)nc3N)c(Cl)c2c1=O (stereo partly drawn) [Example 9, 6-((3-amino-5-((S)-1-amino-1,3-dihydrospiro[indene-2,4'-piperidin]-1'-yl)pyrazin-2-yl)thio)-5-chloro-3-(2-methoxypropyl)quinazolin-4(3H)-one] | < 45 nM | < 3 nM |  |  |  |
| Cn1cnc2ccc(Sc3ncc(N4CCC5(CC4)Cc4ccccc4[C@H]5N)nc3N)c(Cl)c2c1=O [Example 10] | < 45 nM | < 3 nM |  |  |  |
| C[C@@H]1OCC2(CCN(c3cnc(Sc4ccc5ccn(C)c(=O)c5c4Cl)cn3)CC2)[C@@H]1N [Example 15, 7-((5-((3S,4S)-4-amino-3-methyl-2-oxa-8-azaspiro[4.5]decan-8-yl)pyrazin-2-yl)thio)-8-chloro-2-methylisoquinolin-1(2H)-one] |  | < 3 nM | 10 to 50 nM | 0.05 to 0.1 |  |
| COC(C)(C)C(F)n1cnc2ccc(Sc3cnc(N4CCC5(CC4)CO[C@@H](C)[C@H]5N)cn3)c(Cl)c2c1=O (stereo partly drawn) [Example 28, 6-((5-((3S,4S)-4-amino-3-methyl-2-oxa-8-azaspiro[4.5]decan-8-yl)pyrazin-2-yl)thio)-5-chloro-3-(1-fluoro-2-methoxy-2-methylpropyl)quinazolin-4(3H)-one] | 45 to 1500 nM | < 3 nM | 10 to 50 nM |  |  |
